Data reported in PubChem BioAssay (NCI).
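In this assay, cells in 96-well plates receive the compound at five concentrations for 48 hours. Endpoints are linearly interpolated between the surrounding concentrations. At the GI50, growth is halved. The concentration for full growth arrest is given as TGI.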

Experiments:
Assay in all cases: NCI anticancer screen, dose series, 48 h
[1] = test system: DU-145 prostate
[2] = test system: HS 578T breast
[3] = test system: MDA-MB-435
[4] = test system: NCI/ADR-RES ovarian
[5] = test system: PC-3 prostate

Structure (SMILES)	GI50 [1] [µM]	TGI [1] [µM]	GI50 [2] [µM]	TGI [2] [µM]	GI50 [3] [µM]	TGI [3] [µM]	GI50 [4] [µM]	TGI [4] [µM]	GI50 [5] [µM]	TGI [5] [µM]
Cc1ccc(S(=O)(=O)NCCNC2=CC(=O)c3nc4ccccc4c4ccnc2c34)cc1	19.1	51.5	27	79.9	17.7	41.2	17	55.4	16	49.8
CCOC(=O)C1=C(c2ccccc2)N(C)c2ccccc2S1		> 100		72.3		> 100		65.1		> 100
COc1ccc2c(c1)C(=O)c1c-2n(CCCN=[N+]=[N-])c(=O)c2cc(N(C)C)ccc12	> 100	> 100	37.5	> 100	> 100	> 100	> 100	> 100	> 100	> 100
CCCCCCCCCCCCCCN		> 100		> 100		> 100		> 100		> 100
CCN(CC)CCNc1ccc([N+](=O)[O-])c2sc3ccccc3c(=O)c12	0.766	2.05	2.17	8.15	0.901	2.32	0.586	2.72	1.05	2.47
COc1ccc2c(c1)/C(=C\c1cccnc1)C(=O)N2	2.52	21.3	31.1	94.7	35.9	> 100	25.4	70.1	33.1	> 100
CCCc1c(CC)c(=N)c2ccccc2n1C	> 100	> 100	> 100	> 100	> 100	> 100	> 100	> 100	71.5	> 100
O=[N+]([O-])c1ccc(S(=O)Cc2ccccc2)c([N+](=O)[O-])c1 (centres undefined)	11	23	21.4	> 100	2.51	7.69	13.5	35.4	14.6	30.9
O=C1c2ccc([N+](=O)[O-])cc2-c2c1c1ccccc1c(=O)n2CCCNCCCNCCCn1c2c(c3ccc([N+](=O)[O-])cc3c1=O)C(=O)c1ccccc1-2	0.667	2.03	1.43	22.7	3.88	> 46.6	7.51	63.5	3.31	15.9
C=C1SC(=Nc2c(C)cc(C)cc2C)N(C(=O)c2sc3ccccc3c2Cl)C12CCCCC2	> 100	> 100	> 100	> 100	> 100	> 100	> 100	> 100	22.3	> 100
COc1cc2c(c(OC)c1OC)-c1ccc(N)c(=O)cc1[C@@H](NC(C)=O)CC2	0.0291	0.0951	0.0127	> 100	< 0.01		3.43	41.2	0.0354	> 100
COc1ccc(Nc2ncc(Br)c(NCCCNC(=O)C3CCC3)n2)cc1	20.5	> 100	3.23	9.2	36.1	> 100	19	80.5	14.5	> 100
CC[N+](C)(CC)CCC(O)(c1ccccc1)c1ccccc1		> 100		> 100		> 100		> 100		> 100
COc1ccc(-c2nc3sc(-c4ccc(Cl)cc4)cn3n2)cc1	> 50	> 50	2.31	> 50	> 50	> 50	3.75	> 50	> 50	> 50
COc1ccc(N2Cc3cnc(Nc4ccccc4)nc3N([C@@H]3CC[C@@H](O)C3)C2=O)cc1	5.59	> 25	0.671	6.2	5.98	> 25	6.9	> 25	6.93	> 25
C=CCN(/C=C1/C(=O)O[C@H](COC)[C@@]2(C)C1=C(O)C(=O)C1=C2[C@H](OC(C)=O)C[C@]2(C)C(=O)CC[C@@H]12)CC=C	2.43	> 10	0.128	1.94	2.68	> 10	> 4.75	> 10	0.177	> 10
CSC(CC(=O)O)C(=O)O (centres undefined)		> 100		> 100		> 100		> 100		> 100
C/C(=N\O)c1cccc(Nc2cc(-n3ccnn3)c3ccccc3n2)c1	17.5	37.2	16.4	87.8	15.4	34.2	20.8	> 100	15.6	38
